Results from US9657088B2, “Anti-HSV antibody” (priority 2009, dated 2017).
Entries after “also recorded” stand apart in the source; their conditions may differ. Where two headings read alike, the source gives them in different places.

How the values were obtained:
[1] = system: HSV-1 wild-type strains and gB mutant viruses; experiment: Mouse protection experiments with gB mutant viruses; assay type: in vivo, C57BL/6 mice; conditions: i.p. 24 hours before
HSV-1 F [2] = experiment: Cell-to-cell spread assay in Vero cell monolayers; assay type: cell-based; conditions: 500 nM, 48 h
Method: Vero cells grown to confluency on glass cover slips in 24-weel tissue culture plates are infected for 4 h at 37° C. with a constant virus amount of 400 TCID50/well. One median tissue culture infective dose (1 TCID50) is the amount of a cytopathogenic agent, such as a virus, that will produce a cytopathic effect in 50% of the cell cultures inoculated. The virus inoculum is subsequently removed, the cells washed twice with PBS and further incubated for 2 days at 37° C. in 1 ml DMEM, 2% FCS, Pen/Strep containing an excess of either different anti-HSV antibodies or polyclonal anti-HSV control serum in order to prevent viral spreading via the supernatant Viral antigens of HSV-infected cells are detected with a fluorescence labelled polyclonal goat-anti-HSV-serum (BETHYL Labolatories, Montgomery, Tex. USA, Catalog No. A190-136F, Lot No. A190-136F-2).
Two days after infection spreading of the virus was detected with fluorescence labeled polyclonal goat-anti-HSV serum using a Leica DM IRE2 confocal microscope at 40-fold magnification.
For spreading within a host HSV uses two mechanisms: release of cell-free particles and direct, cell-to-cell spread. […] Viral antigens were detected by staining of HSV-1 infected cell monolayers with FITC-conjugated polyclonal goat-anti-HSV serum (BETHYL, Montgomery, Tex., USA) diluted 1:100 in blocking buffer. […]

HSV1 strain 342 hv = experiment: Intravaginal HSV1 infection of C57BL/6J mice, i.p. antibody; assay type: in vivo; conditions: i.p. post infection
Text: Therefore, C57BL/6J mice were infected by application of the HSV1 strain 342 hv on the intact vaginal mucosa membrane.

HSV-1 F [3] = experiment: Virus neutralization end-point dilution assay on Vero cells, 100 TCID50; assay type: cell-based; conditions: Table 4, read-out: concentration required for 50% neutralization
Method: (§1) Neutralizing activity of antibodies were determined by a standard end-point dilution assay using Vero cells grown as monolayers in microtiter plates. […] After 72 h incubation at 37° C. the antibody concentration required to prevent the formation of virus-induced CPE to 100% was determined as complete neutralization titer.
(§2) Neutralizing activity of antibodies was determined by end-point dilution assay as described previously (16). Briefly, serial dilutions of antibodies were incubated with 100 TCID50 of HSV-1 or HSV-2 for 1 h at 37° C. in cell culture medium. The antibody virus inoculum was applied to Vero cell monolayers grown in microtiter plates and cytopathic effect (CPE) was scored after 72 h incubation at 37° C. The antibody concentration required for reducing virus-induced CPE by 100% was determined as complete neutralization titer. […] For control purposes virus without antibody and antibody alone was used to induce maximal CPE or no CPE, respectively.

HSV-2 G = experiment: as above; assay type: cell-based; conditions: 100% reduction of CPE, 72 h
Method: as §1, §2

gB derived peptides = assay type: binding, HSV-1
HSV-1 F [4] = experiment: Post-exposure treatment of NOD/SCID mice with established HSV-1 infection; assay type: in vivo
Method: Infected animals per group n=7.
Vaginal virus titers of antibody or control treated mice were determined from vaginal irrigations cultured on Vero cell monolayers. Error bars indicate standard deviation.
Anesthetized female nonobese diabetic/severe combined immunodeficient (NOD-SCID) mice (NOD.CB17-Prkdc^scid/J, Charles River Laboratories, Research Models and Services, Sulzfeld, Germany), 6-8 weeks of age, were challenged intravaginally with 20 μl inoculum of 1×10^6 TCID50 HSV-1 F per mouse. Skin glue (Epiglu, Meyer-Haake Medical Innovations, Wehrheim, Germany) was applied onto the vulva to prevent discharge of the virus inoculum. […] Mice were examined daily after viral inoculation for loss of weight, vulvitis/vaginitis (redness, mucopurulent discharge and signs of inflammation) and neurological disease. Mice displaying any of theses symptoms were sacrificed immediately. […] Mice were assessed for infection by determination of virus titers from vaginal irrigations obtained on days 1, 2, 4, 6 and 8 after infection and at the time of death using the endpoint dilution assay on Vero cells. Viral loads in organs (spleen, adrenal gland, lung heart, liver, kidney, spinal cord, and brain) of sacrificed mice were determined after homogenization of organs by titration on Vero cell monolayers as described elsewhere (41). Each test and control group contained 9-10 animals with detectable HSV-1 infection.

Substance: mAb 2c: murine monoclonal IgG2a antibody specific for glycoprotein B of HSV1 and HSV2; VH SEQ ID NO: 9, VL SEQ ID NO: 10
- protective effect in vivo ([1]; mice inoculated with mutants R126 (Y303N), R1375 (R304Q), B4.1 (E305K)): ineffective
- protective effect in vivo ([1]; mice inoculated with mutants R1435 (H308Y) or R233 (R328H) or wild-type viruses): effective
- inhibition of cell-to-cell spread (HSV-1 F [2]): inhibit at a concentration of 500 nM the cell-to-cell spread completely; also recorded: completely abrogated HSV-1 spread
- inhibition of viral replication and prevention of lethal disease (HSV1 strain 342 hv; CD4+ and CD8+ depleted animals): capable to inhibit viral replication as well as to prevent a generalized, lethal progressing disease with a high efficiency
- inhibition of viral propagation in vaginal mucosa and inflammatory lesions (HSV1 strain 342 hv; immunocompetent and CD4+ T cell depleted animals): capable of inhibiting the viral propagation in the vaginal mucosa membrane and the formation of inflammatory lesions
- IC50 (HSV-1 F [3]): 4.3 nM
- Concentration for complete neutralization of 100 TCID50 (HSV-2 G): 31 nM
- binding strength to duotope (gB derived peptides; duotope FED-βA-βA-FYGYRE): almost saturation of the fluorescence signal intensity
- binding strength to duotope (gB derived peptides; duotope YSQFMG-βA-FYGYRE versus peptide 172[…]184): only slightly increased
- protection from lethal outcome of established infection (HSV-1 F [4]; 15 mg/kg i.v. at 24 h, 40 h and 56 h post infection): completely protected from the lethal outcome of infection; also recorded: completely prevented lethal outcome of infection
- virions in sensory neurons and respective organs (HSV-1 F [4]; one month after infection): no virions were detected
